These are literature values, as cited in patent publication US20230098686A1, “NERVE SPECIFIC FLUOROPHORE FORMULATIONS FOR DIRECT AND SYSTEMIC ADMINISTRATION” (OREGON HEALTH & SCIENCE UNIVERSITY, priority 2020, published 2023).

SMILES strings stand for the structures.

The data set concerns nerve tissue. Particulars: previous studies.

In the case of `CC/N=c1/cc2oc3cc(NCC)c(C)cc3nc-2cc1C` [Oxazine 4], the nerve specificity entry was “high nerve-specificity”.
